What was measured:
[1] = molecular target: T1, XIAP BIR3 (Homo sapiens, UniProt P98170); assay: XIAP BIR3 binding assay (DELFIA), displacement of SMAC peptide; conditions: GST-fusion BIR3 domain (aa 241 to 356) 10 nM, SMAC peptide 10 nM; activity of the (S)-isomers
T1 construct: covering amino acids 241 to 356; XIAP BIR3; made in house; host or cells: E. coli
In short: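 Each BIR3 domain (10 nM) incubated with biotinylated N-terminal SMAC peptide (10 nM) and compound for 1 h at room temp in Tris/NaCl buffer with BSA, DTT and Triton X-100. Captured on streptavidin plates; bound BIR3 detected by Eu-labelled anti-GST time-resolved fluorescence, giving IC50 values.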

[2] = molecular target: T2, cIAP1 BIR3 (Homo sapiens, UniProt Q13490); assay: cIAP1 BIR3 binding assay (DELFIA), displacement of SMAC peptide; conditions: GST-fusion BIR3 domain (aa 256 to 363) 10 nM, SMAC peptide 10 nM; activity of the (S)-isomers
T2 construct: covering amino acids 256 to 363; cIAP1 BIR3; made in house; host or cells: E. coli
Description: Biological Methods XIAP BIR3 and cIAP1 BIR3 Binding Assays (DELFIA)
Peptide […]-Lys(Biotin), representing the N-terminus of mature human SMAC (SMAC peptide), was used as interaction partner in the protein-peptide interaction assay.
BIR3 domains (10 nM) were incubated with SMAC peptide (10 nM) in Assay Buffer (50 mM Tris, 120 mM NaCl, 0.1% BSA, 1 mM DTT, 0.05% TritonX100) for one hour at room temperature in the presence of inhibitiory compounds. The assay mixture was transferred to a strepatvidin coated plate and incubated for one hour at room temperature to allow binding of the biotinylated peptide and associated BIR3 domains to the plate. After several washing steps Eu labeled anti-GST antibody (e.g. Perkin Elmer DELFIA Eu-N1-antiGST AD0250) was added to detect BIR3 domain-SMAC peptide interactions according to Perkin Elmer's instructions. […] Time resolved Europium fluoresecence was measured in a Wallac Victor using Standard assay settings.
DELFIA assay results were plotted against compound concentrations and Software GraphPad Prizm was used to calculate half maximal inhibitory concentrations (IC50 values).

T2 sequence (Q13490 256-363): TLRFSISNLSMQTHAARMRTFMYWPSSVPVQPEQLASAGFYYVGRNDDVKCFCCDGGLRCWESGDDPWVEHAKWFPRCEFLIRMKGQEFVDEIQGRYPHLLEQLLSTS
T1 sequence (P98170 241-356): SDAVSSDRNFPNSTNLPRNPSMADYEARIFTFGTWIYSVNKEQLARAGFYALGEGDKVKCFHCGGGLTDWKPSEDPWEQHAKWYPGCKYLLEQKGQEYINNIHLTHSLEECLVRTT

`CNC(C)C(=O)Nc1ccc(-c2c(C)nc3ccccn23)c(C#Cc2ccc3c(c2)CCO3)n1` (centres unmarked) [Example 69, N-[6-[2-(2,3-dihydro-1-benzofuran-5-yl)ethynyl]-5-(2-methylimidazo[1,2-a]pyridin-3-yl)pyridin-2-yl]-2-(methyl-amino)propanamide] was tested, and the IC50 [1] was 110 nM and the IC50 [2] was 2 nM.
Compound `CNC(C)C(=O)Nc1ccc(-c2c(C)nc3ccccn23)c(C#Cc2cc3ccccc3o2)n1` (centres unmarked) [Example 70, N-[6-[2-(1-benzofuran-2-yl)-ethynyl]-5-(2-methyl-imidazo[1,2-a]pyridin-3-yl)-pyridin-2-yl]-2-(methylamino)-propanamide] has an IC50 [1] of 66 nM and an IC50 [2] of 1 nM.
`CNC(C)C(=O)Nc1ccc(-c2c(C)nc3ccccn23)c(C#Cc2ccc3c(c2)oc(=O)n3C)n1` (centres unmarked) [Example 71, 2-(methylamino)-N-[5-(2-methylimidazo[1,2-a]pyridin-3-yl)-6-[2-(3-methyl-2-oxo-1,3-benzoxazol-6-yl)ethynyl]-pyridin-2-yl]propanamide] was tested, and the IC50 [1] was 300 nM and the IC50 [2] was 1 nM.
Work on `CNC(C)C(=O)Nc1ccc(-c2c(C)nc3ccccn23)c(C#Cc2ccc3nn(C)cc3c2)n1` (centres unmarked) [Example 72, 2-(methylamino)-N-[5-(2-methylimidazo[1,2-a]pyridin-3-yl)-6-[2-(2-methylindazol-5-yl)-ethynyl]pyridin-2-yl]propan-amide] yielded an IC50 [1] of 145 nM and an IC50 [2] of 1 nM.
For `CNC(C)C(=O)Nc1ccc(-c2c(C)nc3ccccn23)c(C#Cc2ccc3oc(=O)n(C)c3c2)n1` (centres unmarked) [Example 74, 2-(methylamino)-N-[5-(2-methylimidazo[1,2-a]pyridin-3-yl)-6-[2-(3-methyl-2-oxo-1,3-benzoxazol-5-yl)ethynyl]-pyridin-2-yl]propanamide], the IC50 [1] was 175 nM and the IC50 [2] was 1 nM.
`CNC(C)C(=O)Nc1ccc(-c2c(C)nc(N(C)C)nc2C)c(C#Cc2ccc3c(ccc(=O)n3C)c2)n1` (centres unmarked) [Example 75, N-[5-[2-(dimethylamino)-4,6-dimethylpyrimidin-5-yl]-6-[2-(1-methyl-2-oxoquinolin-6-yl)-ethynyl]pyridin-2-yl]-2-(methyl-amino)propanamide] gave an IC50 [1] of 1670 nM and an IC50 [2] of 1 nM.
Compound `CNC(C)C(=O)Nc1ccc(-c2c(C)nc3ccccn23)c(C#Cc2ccc3c(OC)nccc3c2)n1` (centres unmarked) [Example 77, N-[6-[2-(1-methoxyisoquinolin-6-yl)ethynyl]-5-(2-methyl-imidazo[1,2-a]pyridin-3-yl)-pyridin-2-yl]-2-(methylamino)-propanamide] has an IC50 [1] of 196 nM and an IC50 [2] of 1 nM.
With `CNC(C)C(=O)Nc1ccc(-c2c(-c3ccncc3)nc3cc(C)ccn23)c(C#Cc2ccc(F)c3ncccc23)n1` (centres unmarked) [Example 78, N-[6-[2-(8-fluoroquinolin-5-yl)-ethynyl]-5-(7-methyl-2-pyridin-4-ylimidazo[1,2-a]pyridin-3-yl)-pyridin-2-yl]-2-(methylamino)-propanamide] the IC50 [1] was 47 nM and the IC50 [2] was 2 nM.
Compound `CNC(C)C(=O)Nc1ccc(-c2c(C)nc(N3CCCC3)nc2C)c(C#Cc2ccc3c(ccc(=O)n3C)c2)n1` (centres unmarked) [Example 79, N-[5-(4,6-dimethyl-2-pyrrolidin-1-ylpyrimidin-5-yl)-6-[2-(1-methyl-2-oxoquinolin-6-yl)-ethynyl]pyridin-2-yl]-2-(methyl-amino)propanamide] has an IC50 [1] of 2400 nM and an IC50 [2] of 1 nM.
`CNC(C)C(=O)Nc1ccc(-c2c(C)nc(N3CCCC3)nc2C)c(C#Cc2ccc3ncccc3c2)n1` (centres unmarked) [Example 80, N-[5-(4,6-dimethyl-2-pyrrolidin-1-ylpyrimidin-5-yl)-6-(2-quinolin-6-ylethynyl)pyridin-2-yl]-2-(methylamino)propan-amide] showed an IC50 [1] of 1310 nM and an IC50 [2] of 1 nM.
Work on `CNC(C)C(=O)Nc1ccc(-c2c(-c3ccncc3)nc3cc(C)ccn23)c(C#Cc2ccc3c(ccc(=O)n3C)c2)n1` (centres unmarked) [Example 81, 2-(methylamino)-N-[6-[2-(1-methyl-2-oxoquinolin-6-yl)-ethynyl]-5-(7-methyl-2-pyridin-4-ylimidazo[1,2-a]pyridin-3-yl)-pyridin-2-yl]propanamide] yielded an IC50 [1] of 253 nM and an IC50 [2] of 1 nM.
In the case of `CNC(C)C(=O)Nc1ccc(-c2c(-c3ccncc3)nc3cc(C)ccn23)c(C#Cc2ccc(-c3ccon3)cc2)n1` (centres unmarked) [Example 82, 2-(methylamino)-N-[5-(7-methyl-2-pyridin-4-ylimidazo[1,2-a]pyridin-3-yl)-6-[2-[4-(1,2-oxazol-3-yl)phenyl]-ethynyl]pyridin-2-yl]propan-amide], the IC50 [1] is reported as 61 nM and the IC50 [2] is reported as 1 nM.
Compound `CNC(C)C(=O)Nc1ccc(-c2c(C)nc(N3CCOCC3)nc2C)c(C#Cc2ccc3c(c2)CC(=O)N3C)n1` (centres unmarked) [Example 87, N-[5-(4,6-dimethyl-2-morpholin-4-ylpyrimidin-5-yl)-6-[2-(1-methyl-2-oxo-3H-indol-5-yl)ethynyl]pyridin-2-yl]-2-(methylamino)propanamide] has an IC50 [1] of 1450 nM and an IC50 [2] of 1 nM.
For `CNC(C)C(=O)Nc1ccc(-c2c(C)nc3ccccn23)c(C#Cc2ccc(-n3ccnc3)cc2)n1` (centres unmarked) [Example 88, N-[6-[2-(4-imidazol-1-ylphenyl)ethynyl]-5-(2-methyl-imidazo[1,2-a]pyridin-3-yl)-pyridin-2-yl]-2-(methylamino)-propanamide], the IC50 [1] was 207 nM and the IC50 [2] was 1 nM.
`CNC(C)C(=O)Nc1ccc(-c2c(C)nc3ccccn23)c(C#Cc2cccc3ncccc23)n1` (centres unmarked) [Example 89, 2-(methylamino)-N-[5-(2-methylimidazo[1,2-a]pyridin-3-yl)-6-(2-quinolin-5-ylethynyl)-pyridin-2-yl]propanamide] gave an IC50 [1] of 92 nM and an IC50 [2] of 2 nM.
In the case of `CNC(C)C(=O)Nc1ccc(-c2c(C)nc3ccccn23)c(C#Cc2ccc(-n3cccn3)cc2)n1` (centres unmarked) [Example 90, 2-(methylamino)-N-[5-(2-methylimidazo[1,2-a]pyridin-3-yl)-6-[2-(4-pyrazol-1-ylphenyl)-ethynyl]pyridin-2-yl]propan-amide], the IC50 [1] is reported as 166 nM and the IC50 [2] is reported as 1 nM.
`CNC(C)C(=O)Nc1ccc(-c2c(C)nc3ccccn23)c(C#Cc2cc(C)nc3c(F)cccc23)n1` (centres unmarked) [Example 92, N-[6-[2-(8-fluoro-2-methylquinolin-4-yl)ethynyl]-5-(2-methylimidazo[1,2-a]pyridin-3-yl)pyridin-2-yl]-2-(methyl-amino)propanamide] gave an IC50 [1] of 172 nM and an IC50 [2] of 1 nM.
In the case of `CNC(C)C(=O)Nc1ccc(-c2c(C)nc3ccccn23)c(C#Cc2ccnc3c(F)cccc23)n1` (centres unmarked) [Example 93, N-[6-[2-(8-fluoroquinolin-4-yl)-ethynyl]-5-(2-methyl-imidazo[1,2-a]pyridin-3-yl)-pyridin-2-yl]-2-(methylamino)-propanamide], the IC50 [1] is reported as 198 nM and the IC50 [2] is reported as 1 nM.
With `CNC(C)C(=O)Nc1ccc(-c2c(-c3ccncc3)nc3cc(C)ccn23)c(C#Cc2ccc3c(c2)OCC(=O)N3C)n1` (centres unmarked) [Example 94, 2-(methylamino)-N-[6-[2-(4-methyl-3-oxo-1,4-benzoxazin-7-yl)ethynyl]-5-(7-methyl-2-pyridin-4-ylimidazo[1,2-a]-pyridin-3-yl)pyridin-2-yl]-propanamide] the IC50 [1] was 107 nM and the IC50 [2] was 1 nM.
Compound `CNC(C)C(=O)Nc1ccc(-c2c(-c3ccncc3)nc3cc(C)ccn23)c(C#Cc2ccc3nccn3c2)n1` (centres unmarked) [Example 95, N-[6-(2-imidazo[1,2-a]pyridin-6-ylethynyl)-5-(7-methyl-2-pyridin-4-ylimidazo[1,2-a]-pyridin-3-yl)pyridin-2-yl]-2-(methylamino)propanamide] has an IC50 [1] of 97 nM and an IC50 [2] of 1 nM.
Compound `CNC(C)C(=O)Nc1ccc(-c2c(-c3ccncc3)nc3cc(C)ccn23)c(C#Cc2ccc(OC)c3ncccc23)n1` (centres unmarked) [Example 96, N-[6-[2-(8-methoxyquinolin-5-yl)ethynyl]-5-(7-methyl-2-pyridin-4-ylimidazo[1,2-a]-pyridin-3-yl)pyridin-2-yl]-2-(methylamino)propanamide] has an IC50 [1] of 83 nM and an IC50 [2] of 1 nM.
With `CC(N)C(=O)Nc1ccc(-c2cncc(Oc3ccccc3)c2)c(C#Cc2ccccc2)n1` (centres unmarked) [Example 100, 2-amino-N-[5-(5-phenoxypyridin-3-yl)-6-(2-phenylethynyl)pyridin-2-yl]propanamide] the IC50 [1] was 461 nM and the IC50 [2] was 324 nM.
In the case of `Cc1ccccc1-c1ccc(NC(=O)C(C)N)nc1C#Cc1ccccc1` (centres unmarked) [Example 108, 2-amino-N-[5-(2-methylphenyl)-6-(2-phenylethynyl)pyridin-2-yl]-propanamide], the IC50 [1] is reported as 1610 nM and the IC50 [2] is reported as 175 nM.
In the case of `CC(N)C(=O)Nc1ccc(-c2cccc(C#N)c2)c(C#Cc2ccccc2)n1` (centres unmarked) [Example 113, 2-amino-N-[5-(3-cyanophenyl)-6-(2-phenylethynyl)pyridin-2-yl]-propanamide], the IC50 [1] is reported as 228 nM and the IC50 [2] is reported as 67 nM.
`CNC(C)C(=O)Nc1ccc(-c2cccc(NC(C)=O)c2)c(C#Cc2ccccc2)n1` (centres unmarked) [Example 118, N-[5-(3-acetamidophenyl)-6-(2-phenylethynyl)pyridin-2-yl]-2-(methylamino)propanamide] showed an IC50 [1] of 287 nM and an IC50 [2] of 92 nM.

Source: patent US8859541B2, “6-alkynylpyridines” (Boehringer Ingelheim International GmbH, priority 2012, dated 2014)
